# Experimental data taken from patent publication US20250057859A1, “CANNABICHROMENEQUINONE AND ANALOGUES THEREOF, AND METHOD OF USING COMPOSITIONS THEREOF AS ANTI-INFLAMMATORY AGENTS” (Juva Life, Inc., priority 2021, published 2025).
# Where two headings read alike, the source gives them in different places.
# How the values were obtained:
# [1] = test system: IL-1β; test: Inhibitory activity on IL-1β
# [2] = test system: IL-10; test: IL-10 secretion assay in human PBMCs (PHA-M-stimulated, ELISA); format: cell-based; conditions: PBMC, PHA-M 10 ug/mL 40 hr, read-out: IL10 inhibitory activity IC50
# Experimental: Fetal bovine serum (FBS) was obtained from ThermoFisher (Cat #16000044). • Other reagents: 96well TC plates were obtained from ThermoFisher (Cat #07-2000-90).
# Cryopreserved PBMCs were thawed in a water bath and transferred to 50 mL polypropylene tubes. The cells were washed two times with 25 mL of RPMI medium supplemented with 5% of regular FBS and re-suspended at a density of 1.5×10^6 cells/mL. The cells were plated into 96 well TC plate (100 uL/well). Serially diluted compound was added to the cells in duplicate wells for each concentration. Control wells received DMSO only (0.3% final). The cells were pre-incubated with compound for 2 hr. After pre-incubation, the cells were stimulated by PHA-M (10 ug/mL) for 40 hr. Control samples with and without PHA-M in the absence of compound were assembled in each test plate. IL-10 was detected in media supernatants by using a sandwich anti-IL10 ELISA kit (BD Biosciences) according to protocol provided by the manufacturer. ELISA readout (optical density at 450 nm) is commensurable with the amount of IL-10 produced by the cells. Assay window was determined in each experiment by comparing average OD450 values in stimulated and un-stimulated samples in the absence of compound. ELISA calibration was performed in each detection plate using serially diluted recombinant human IL-10 standard to ensure that OD450 values for all test samples were within linear range of detection.%-Inhibition by compound was calculated using following equation:
# [formula] • where OD450100% is optical density in control samples stimulated with PHA-M without compound, OD4500% is optical density in unstimulated control samples, and OD450compound is optical density in a sample stimulated with PHA-M in the presence of compound. The calculated %-Inh values were plotted against compound concentration. To determine IC50 values, dose-response curves were fitted by a 4-parameter sigmoid inhibition model using XLFit® software (IDBS).
# [3] = target: T1, recombinant human LOX-5 (Homo sapiens, UniProt P09917); test: Biochemical LOX-5 assay
# T1 construct: expressed in insect cells (Amino Acids 1-674) was obtained from Cayman; purchased Cayman 60402; host or cells: insect cells
# T1 sequence (P09917 1-674): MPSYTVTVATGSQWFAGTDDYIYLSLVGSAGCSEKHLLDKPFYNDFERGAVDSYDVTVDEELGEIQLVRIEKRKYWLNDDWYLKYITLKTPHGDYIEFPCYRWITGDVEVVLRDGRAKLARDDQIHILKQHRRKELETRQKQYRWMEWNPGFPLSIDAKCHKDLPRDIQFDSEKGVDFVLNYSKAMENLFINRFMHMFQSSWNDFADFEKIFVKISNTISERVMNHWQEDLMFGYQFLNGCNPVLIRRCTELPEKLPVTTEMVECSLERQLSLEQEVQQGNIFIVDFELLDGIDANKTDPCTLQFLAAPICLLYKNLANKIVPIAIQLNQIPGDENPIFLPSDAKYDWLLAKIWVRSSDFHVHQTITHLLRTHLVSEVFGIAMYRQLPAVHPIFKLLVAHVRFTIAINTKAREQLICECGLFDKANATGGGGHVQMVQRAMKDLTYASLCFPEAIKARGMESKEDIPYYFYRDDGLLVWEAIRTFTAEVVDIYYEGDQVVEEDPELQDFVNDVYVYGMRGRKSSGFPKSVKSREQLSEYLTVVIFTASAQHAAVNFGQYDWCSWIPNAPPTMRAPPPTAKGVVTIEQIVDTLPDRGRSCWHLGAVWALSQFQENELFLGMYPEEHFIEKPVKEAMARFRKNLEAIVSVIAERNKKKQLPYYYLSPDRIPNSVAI
# Description: • Active recombinant human LOX-5 protein expressed in insect cells (Amino Acids 1-674) was obtained from Cayman (Cat #60402) • 2′,7′-dichlorodihydrofluorescein diacetate, H2DCFDA, was obtained from Sigma (Cat #96883) • Arachidonic acid, AA, was obtained from Sigma (Cat #A3611) • Other reagents: black 384 well assay plates were obtained from Corning (Cat #3820). • Equipment: Synergy Neo2 Multi-mode plate reader (Biotek), Labcyte 550 acoustic dispenser (Labcyte), Biomek FX robotic dispenser (Beckman Coulter), Sorvall Legend RT centrifuge (Kendro).
# The LOX-5 assay was performed in assay buffer comprising: 50 mM Tris (pH 7.5), 2 mM EDTA, 2 mM CaCl2, 3 uM AA, 10 uM ATP, 10 uM H2DCFDA, and recombinant enzyme (50mU per 20 ul reaction, as defined by manufacturer). Serially diluted compounds were prepared in DMSO in Echo qualified 384 well plates. An assay buffer was then prepared without AA and ATP supplemented with 20 uM H2DCFDA. 10 μL of the supplemented buffer was dispensed into control (no enzyme) wells in the black 384well assay plate. Next, a 2× enzyme solution was prepared, comprising 100 mU LOX-5 enzyme in the supplemented assay buffer. 10 uL of the 2× enzyme solution was then dispensed into test wells in the black 384well assay plate. Serially diluted compounds were added to the assay plate by acoustic dispensing (Labcyte 550). Control wells received DMSO only.
# Next, the 2× substrate was prepared to comprise 6 uM arachidonic acid and 20 uM ATP in the assay buffer. 10 μL of the 2× substrate was then added to all wells in the assay plate. The plate was incubated for 20 min. The plate was read on Synergy Neo2 in fluorescence mode: excitation 485 nm, emission 530 nm. % inhibition and the resulting IC50 was calculated for the compound using the following equation:
# [formula] • where RFU100% is fluorescence in control samples without compound, RFU0% is fluorescence in control samples without LOX-5, and RFUcompound fluorescence in a sample with compound.
# The calculated %-Inh values were plotted against compound concentration. To determine IC50 values, dose-response curves were fitted by a 4-parameter sigmoid inhibition model using XLFit® software (IDBS).
# [4] = recombinant enzyme, 3 uM AA, read-out: 5-Lox inhibitory activity IC50
SMILES,IC50 [1],IC50 [2],"IC50 [3, 4]",IC50 [3]
CCCCCc1cc(OC)c2c(c1OC)OC(C)(CCC=C(C)C)C=C2 (stereo not drawn) [Formula XXIV],> 10 µM,> 10 µM,> 10 µM,–
CCCCCc1cc(O)c2c(c1O)OC(C)(CCC=C(C)C)C=C2 (stereo not drawn) [Formula XXII],3.3 µM,0.92 µM,0.25 µM,–
CCCCCc1cc(OC(C)=O)c2c(c1OC(C)=O)OC(C)(CCC=C(C)C)C=C2 (stereo not drawn) [Formula XXIII],0.97 µM,0.92 µM,2.71 µM,–
CCCCCC1=CC(=O)C2=C(OC(C)(CCC=C(C)C)C=C2)C1=O (stereo not drawn) [Formula II],1.72 µM,0.78 µM,0.27 µM,–
CCCCCC1=C(NCCC)C(=O)C2=C(OC(C)(CCC=C(C)C)C=C2)C1=O (stereo not drawn) [Formula XXV],> 10 µM,> 10 µM,1.18 µM,–
CC(C)=CCCC1(C)C=CC2=C(O1)C(=O)c1ccccc1C2=O (stereo not drawn) [Formula XXVII],> 10 µM,> 10 µM,–,> 10 µM
CCCCCC1=C(NCC)C(=O)C2=C(OC(C)(CCC=C(C)C)C=C2)C1=O (stereo not drawn) [Formula XXVIII],> 10 µM,> 10 µM,> 10 µM,–
CCCCCC1=CC(=O)C2=C(O[C@](C)(CCC=C(C)C)C=C2)C1=O [Formula XXVI],0.54 µM,0.38 µM,0.23 µM,–
